Type in all cases: ADME, organism-based
The nature of data set [1]: Drug excretion in conventional Wistar rat urine treated with mangiferin at 400 mg/kg, po administered as single dose by HPLC-DAD analysis. Set-up: dose 400 mg/kg, route oral. Particulars: in vivo.
Data set [2] is described as follows: Drug excretion in conventional Wistar rat feces treated with mangiferin at 400 mg/kg, po administered as single dose by HPLC-DAD analysis. Set-up: dose 400 mg/kg, route oral. Particulars: in vivo.
Data set [3] can be described thus: Drug excretion in streptozotocin-induced diabetic Wistar rat urine treated with mangiferin at 400 mg/kg, po administered as single dose by HPLC-DAD analysis. Set-up: dose 400 mg/kg, route oral. The conditions noted are these: in vivo.
Data set [4] is described as follows: Drug excretion in streptozotocin-induced diabetic Wistar rat feces treated with mangiferin at 400 mg/kg, po administered as single dose by HPLC-DAD analysis. Set-up: dose 400 mg/kg, route oral. The conditions noted are these: in vivo.
The species entered for data set [5] is Rattus norvegicus. Description: Drug retention time in Wistar rat by HPLC-DAD analysis.

Molecules are shown by their SMILES.

As to `O=c1c2cc(O)c(O)cc2oc2cc(O)cc(O)c12`, the Drug excretion entry in data set [1], in data set [2], in data set [3] and in data set [4] was “metabolite_detected” throughout. The Retention_time in data set [5] was 36 min.

Consider `O=c1c2cc(O)ccc2oc2cccc(O)c12`, for which, in data set [3], the Drug excretion entry is given as “metabolite_detected”. In addition, in data set [5], the Retention_time is given as 40.4 min.

The values above are taken from ChEMBL document CHEMBL3525933 (Drug Metab Dispos, 2012).
